Laboratory results as given in patent US12514938B2, “Fibroblast activation protein targeting peptides” (PERSPECTIVE THERAPEUTICS, INC., priority 2023, dated 2026).
*1 amine or outer side, *2 acyl side, *3 side chain or, on linkers, in order; H or OH if unused. Where a SMILES comes first, the peptide text is derived from it. Bridges are numbered along the chain shown (N, C = ends). The star is where a group is joined. X1 = NC(=O)CN1CCN(CC(=O)O)CCN(CC(=O)*)CCN(CC(=O)O)CC1; oXylylene = c1ccc(C[*:2])c(C[*:1])c1; PEG2 = NCCOCCOCCC(=O)O

Tests used:
Format in all cases: biochemical
[1] = molecular target: T1, Human Fibroblast Activation Protein (FAP) (Homo sapiens, UniProt Q12884); assay: Enzyme inhibition assay against human FAP (substrate Z-GP-AMC), Example 1; conditions: human FAP 5 ng/well, 50 μM Z-GP-AMC; Ki from IC50 by Cheng-Prusoff
T1 sequence (Q12884 1-760): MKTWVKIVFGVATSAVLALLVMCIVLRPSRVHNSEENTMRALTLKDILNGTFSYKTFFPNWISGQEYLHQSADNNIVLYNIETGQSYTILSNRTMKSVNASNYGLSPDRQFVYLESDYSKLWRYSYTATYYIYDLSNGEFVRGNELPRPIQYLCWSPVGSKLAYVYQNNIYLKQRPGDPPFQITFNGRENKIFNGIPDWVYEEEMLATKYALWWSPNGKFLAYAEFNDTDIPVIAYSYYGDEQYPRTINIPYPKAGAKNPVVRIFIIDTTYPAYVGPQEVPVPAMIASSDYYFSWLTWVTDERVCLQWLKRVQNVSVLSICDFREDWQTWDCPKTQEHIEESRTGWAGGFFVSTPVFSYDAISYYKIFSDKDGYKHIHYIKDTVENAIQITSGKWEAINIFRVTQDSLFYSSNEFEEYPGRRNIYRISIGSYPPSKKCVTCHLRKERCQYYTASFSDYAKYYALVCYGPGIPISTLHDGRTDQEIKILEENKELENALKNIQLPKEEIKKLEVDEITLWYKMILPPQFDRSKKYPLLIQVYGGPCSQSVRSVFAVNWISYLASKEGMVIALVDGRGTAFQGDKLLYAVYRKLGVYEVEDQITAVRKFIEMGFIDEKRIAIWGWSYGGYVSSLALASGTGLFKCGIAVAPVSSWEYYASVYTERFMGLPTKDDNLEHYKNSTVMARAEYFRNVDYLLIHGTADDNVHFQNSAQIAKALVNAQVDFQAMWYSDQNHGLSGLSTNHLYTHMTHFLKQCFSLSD
Outline: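 FAP (5 ng/well) preincubated 10 min at RT with peptide (10^−6 to 10^−12), then 50 μM Z-GP-AMC added for 1 h at RT, protected from light. Buffer 50 mM Tris-HCl, 1 M NaCl, 1 mg/mL BSA, pH 7.5; fluorescence at ex/em 360/460. IC50 from non-linear regression, converted to Ki via Cheng-Prusoff using known substrate Km.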

[2] = molecular target: T2, human FAP (Homo sapiens, UniProt Q12884); assay: Enzyme inhibition assay, binding specificity of VMT-FAP-2-59 (Example 3); conditions: 50 μM Z-GP-AMC
T2 sequence (Q12884 1-760): T1 sequence (Q12884 1-760)
Description: (§1) The enzyme inhibition assay was performed to determine inhibitor constant (i.e., Ki) values against human FAP, mouse FAP, human dipeptidyl peptidase 4 (DPPIV) and human prolyl endopeptidase (PREP). Z-GP-AMC was used as substrate for human FAP, mouse FAP and human PREP. GP-AMC was used as substrate for human DPPIV. To perform the assay, VMT-FAP-2-59 at varying concentrations (i.e. 10^−6 to 10^−12) were incubated with 5 ng hFAP, 5 ng mFAP, 2.5 ng DPPIV, or 5 ng PREP in a black 96-well plate for 10 minutes at RT on a shaker plate. The substrate was added to give a final concentration of 50 μM for Z-GP-AMC and GP-AMC. The total reaction volume per well was 100 μL The reaction was allowed to incubate at RT on a shaker plate for 1 hour protected from light, and then fluorescence was read with a BioTek Synergy LX plate reader at an ex/em (360/40 and 460/40). Experiments were performed in at least duplicate. Buffer only, buffer/enzymes, buffer/substrate and enzyme only were included as controls. Data was plotted in GraphPad Prism and non-linear regression used to calculate IC50 values. Binding kinetics (Kd) of VMT-FAP-2-59 against human FAP, human DPPIV and human PREP were also determined by grating-coupled interferometry (GCI). hFAP, hDPPIV and hPREP proteins were fixed on PCH (N=3) chips or PCP (N=2). […] On PCP chips, binding affinity of VMT-FAP-2-29 to hFAP was determined from 39 pM to 20 nM. Binding affinity to hDPPIV and hPREP was determined at concentration from 39 pM to 50 nM.

[3] = molecular target: T3, mouse FAP (Mus musculus, UniProt P97321); assay: as above; conditions: 50 μM Z-GP-AMC
T3 sequence (P97321 1-761): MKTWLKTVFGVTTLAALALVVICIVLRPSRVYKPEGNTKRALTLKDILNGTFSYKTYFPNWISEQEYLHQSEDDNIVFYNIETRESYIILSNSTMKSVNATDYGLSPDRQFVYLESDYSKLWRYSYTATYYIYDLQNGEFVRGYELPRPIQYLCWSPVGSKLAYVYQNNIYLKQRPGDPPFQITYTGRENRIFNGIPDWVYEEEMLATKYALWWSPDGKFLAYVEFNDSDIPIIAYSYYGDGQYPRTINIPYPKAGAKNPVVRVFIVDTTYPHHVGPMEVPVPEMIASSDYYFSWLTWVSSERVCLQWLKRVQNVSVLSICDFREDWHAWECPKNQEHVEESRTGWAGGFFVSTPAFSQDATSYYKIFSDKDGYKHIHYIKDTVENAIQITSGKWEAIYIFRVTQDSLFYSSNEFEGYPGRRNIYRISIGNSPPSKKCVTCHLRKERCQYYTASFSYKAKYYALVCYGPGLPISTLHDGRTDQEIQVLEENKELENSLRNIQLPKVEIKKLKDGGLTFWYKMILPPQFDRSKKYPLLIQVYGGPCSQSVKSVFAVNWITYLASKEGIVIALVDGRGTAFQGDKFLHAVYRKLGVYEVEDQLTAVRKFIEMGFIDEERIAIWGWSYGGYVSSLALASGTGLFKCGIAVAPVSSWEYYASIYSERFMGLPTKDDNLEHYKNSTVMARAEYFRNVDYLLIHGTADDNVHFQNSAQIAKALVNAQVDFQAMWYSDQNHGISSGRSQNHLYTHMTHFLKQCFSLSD
Description: as §1

Question: Which Ki [1] does the source give for `C[C@@H](O)[C@@H]1NC(=O)[C@@H](NC(=O)CCOCCOCCNC(=O)CN2CCN(CC(=O)O)CCN(CC(N)=O)CCN(CC(=O)O)CC2)CSCc2ccccc2CSC[C@@H](C(N)=O)NC(=O)[C@H](Cc2c[nH]c3ccccc23)NC(=O)[C@H](Cc2c[nH]c3ccccc23)NC(=O)[C@H](CCC(N)=O)NC(=O)[C@H](CCC(=O)O)NC(=O)[C@H](Cc2c[nH]c3ccccc23)NC(=O)[C@@H]2CCCN2C1=O` [VMT-FAP-2-59, PSC-PEG2-[C(oXdB)TPWEQWWC]-NH2] ({X1-PEG2}-CTPWEQWWC-NH2; linker 1-9 via oXylylene) here?
Answer: 0.36 nM

Question: And the Ki [2]?
Answer: 0.4 nM

Question: And the Ki [3]?
Answer: 4.2 nM
